Results taken from patent US10898504B2, “Substituted nucleoside analogues for use as PRMT5 inhibitors” (Janssen Pharmaceutica NV, priority 2016, dated 2021).
Where “and” joins values, the source holds several entries; their conditions need not be identical. Equal values may be shown once.

Legend:
PRMT5-MEP50 enzyme = molecular target: T1, PRMT5-MEP50 enzyme (Homo sapiens, UniProt O14744); assay: In vitro assay (Assay 1): PRMT5-MEP50 high throughput mass spectrometer assay, inhibition of SAH formation; assay type: biochemical; conditions: individual measurements shown; for IC50: read-out: pIC50 Assay 1 (converted)
T1 construct: One virus expresses full length human PRMT5 with Flag-tag at N-terminus
Summary of the method: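 Flag-PRMT5/His-MEP50 full-length human complex (Sf9-expressed), 10 nM, with 1 μM SAM and 0.3 μM histone H2A in 20 mM Tris-HCl pH 8.5, 50 mM NaCl, 5 mM MgCl2, 1 mM DTT; 60 min at 30 °C, quenched with 1% formic acid. SAH quantified by RapidFire MS; IC50 from 11-point 1:2 series fitted to four-parameter Hill equation.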

A549 cells = assay: PD assay (Assay 2): inhibition of nuclear symmetric Arginine dimethylation (SYM10 immunohistochemistry) in A549 cells; assay type: cell-based; conditions: Homo sapiens, A549, PD assay in A549 cells, individual measurements shown, read-out: pIC50 Assay 2 (converted)
Summary of the method: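 A549 cells dosed with a nine-point series (0.2% DMSO) for 48 h at 37° C, then fixed and immunostained with SYM10 anti-symmetric-dimethylarginine antibody, plus Hoechst and CellMask counterstains for high-content imaging. Nuclear signal normalized between DMSO and 10 μM reference-compound controls to derive IC50/pIC50.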

PRMT5 = PRMT5 (Homo sapiens, UniProt O14744); conditions: Chan-Penebre et al., Nat Chem Biol 2015; cited from earlier work
MCL xenograft models = conditions: multiple MCL xenograft models; Chan-Penebre et al., Nat Chem Biol 2015; cited from earlier work

T1 sequence (O14744 whole entry): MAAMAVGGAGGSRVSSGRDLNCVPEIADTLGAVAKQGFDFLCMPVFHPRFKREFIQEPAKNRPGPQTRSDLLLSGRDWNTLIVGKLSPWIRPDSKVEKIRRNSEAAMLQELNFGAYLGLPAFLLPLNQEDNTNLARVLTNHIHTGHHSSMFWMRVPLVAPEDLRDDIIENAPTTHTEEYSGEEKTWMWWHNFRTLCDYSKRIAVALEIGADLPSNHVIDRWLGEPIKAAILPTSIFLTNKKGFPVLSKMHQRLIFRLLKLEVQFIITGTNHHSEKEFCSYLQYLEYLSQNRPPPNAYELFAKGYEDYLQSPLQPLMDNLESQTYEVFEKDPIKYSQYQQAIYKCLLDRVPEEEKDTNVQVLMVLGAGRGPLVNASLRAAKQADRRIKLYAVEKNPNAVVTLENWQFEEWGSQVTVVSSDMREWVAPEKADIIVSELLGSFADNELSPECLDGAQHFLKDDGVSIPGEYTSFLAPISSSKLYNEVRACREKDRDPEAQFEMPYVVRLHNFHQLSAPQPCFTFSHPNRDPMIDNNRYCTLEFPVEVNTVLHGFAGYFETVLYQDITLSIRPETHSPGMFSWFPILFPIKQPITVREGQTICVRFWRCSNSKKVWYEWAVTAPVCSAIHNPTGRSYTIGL
T1 sequence (Q9BQA1 whole entry partner): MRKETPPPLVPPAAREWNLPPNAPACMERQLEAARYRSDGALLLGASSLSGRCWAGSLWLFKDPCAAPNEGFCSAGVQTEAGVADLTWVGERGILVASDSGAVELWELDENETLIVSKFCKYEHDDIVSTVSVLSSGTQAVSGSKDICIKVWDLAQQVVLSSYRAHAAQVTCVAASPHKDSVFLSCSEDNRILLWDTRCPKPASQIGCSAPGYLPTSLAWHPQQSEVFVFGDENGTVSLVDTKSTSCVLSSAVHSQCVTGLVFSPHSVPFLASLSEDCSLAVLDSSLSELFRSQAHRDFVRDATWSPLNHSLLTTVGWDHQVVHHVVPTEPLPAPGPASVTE
PRMT5, sequence (O14744 whole entry, species assumed): as the sequence (O14744 whole entry) above
PRMT5, sequence (Q9BQA1 whole entry partner, species assumed): as the sequence (Q9BQA1 whole entry partner) above

| Compound | IC50 (PRMT5-MEP50 enzyme) | IC50 (A549 cells) [nM] | pIC50 Assay 1 (PRMT5-MEP50 enzyme) | potency as PRMT5 inhibitor (PRMT5) | anti-tumour activity (MCL xenograft models) |
| --- | --- | --- | --- | --- | --- |
| CN1CCC2(CC1)CC(F)(F)CN2C[C@H]1O[C@@H](n2ccc3c(N)ncnc32)[C@H](O)[C@@H]1O [Compound 181] | 19.5 nM | 66.1 |  |  |  |
| CCN1CCC2(CC1)CC(F)(F)CN2C[C@H]1O[C@@H](n2ccc3c(N)ncnc32)[C@H](O)[C@@H]1O [Compound 182] | 15.5 nM | 501 |  |  |  |
| CC(C)CCN1CCC2(CC1)CC(F)(F)CN2C[C@H]1O[C@@H](n2ccc3c(N)ncnc32)[C@H](O)[C@@H]1O [Compound 184] | 67.6 nM | ~1480 |  |  |  |
| Nc1ncnc2c1ccn2[C@@H]1O[C@H](CN2CC(F)(F)CC23CCN(CCC2CC2)CC3)[C@@H](O)[C@H]1O [Compound 185] | 25.1 nM | 589 |  |  |  |
| CN1CCC2(CCCN(C[C@H]3O[C@@H](n4ccc5c(N)ncnc54)[C@H](O)[C@@H]3O)C2)C1 (stereo partly shown) [Compound 186] | 13.5 nM | 617 |  |  |  |
| CN(C)CC[C@@H]1CCCN1C[C@H]1O[C@@H](n2ccc3c(N)ncnc32)[C@H](O)[C@@H]1O [Compound 187] | 63.1 nM | 1700 |  |  |  |
| CN1CCC2(CC1)CC(F)(F)CN2C[C@H]1O[C@@H](n2ccc3c(Cl)ncnc32)[C@H](O)[C@@H]1O [Compound 188] | 372 nM | 708 |  |  |  |
| CN1CCC2(CCCN2C[C@H]2O[C@@H](n3cnc4cncnc43)[C@H](O)[C@@H]2O)CC1 [Compound 191] |  | > 10000 | 5.04 |  |  |
| N#CCN1CCC2(CCCN2C[C@H]2O[C@@H](n3ccc4c(N)ncnc43)[C@H](O)[C@@H]2O)CC1 [Compound 192] | 69.2 nM | 83.2 |  |  |  |
| N#CCCN1CCC2(CCCN2C[C@H]2O[C@@H](n3ccc4c(N)ncnc43)[C@H](O)[C@@H]2O)CC1 [Compound 193] | 186 nM | 468 |  |  |  |
| Nc1ncnc2c1ccn2[C@@H]1O[C@H](CN2CCCC23CCN(C2COC2)CC3)[C@@H](O)[C@H]1O [Compound 198] | 437 nM | ~1100 |  |  |  |
| Nc1ncnc2c1ccn2[C@@H]1O[C@H](CN2CCCC23CCN(CC2OCCc4ccccc42)CC3)[C@@H](O)[C@H]1O (stereo partly shown) [Compound 201] | 457 nM | ~10200 |  |  |  |
| Nc1ncnc2c1ccn2[C@@H]1O[C@H](CN2CCCC23CCN(CC(F)(F)F)CC3)[C@@H](O)[C@H]1O [Compound 202] | 2000 nM | ~4680 |  |  |  |
| CN1CCC2(CCC=C2C[C@H]2C[C@@H](n3ccc4c(N)ncnc43)[C@H](O)[C@@H]2O)CC1 [Compound 206] | 5.13 nM | 64.6 |  |  |  |
| CN1CCC2(CCC/C2=C\[C@H]2C[C@@H](n3ccc4c(N)ncnc43)[C@H](O)[C@@H]2O)CC1 [Compound 207] | 5.01 nM | 52.5 |  |  |  |
| O[C@@H]1[C@H](O)[C@@H](CN2CCCC23CCNCC3)O[C@H]1n1cnc2c(NC3CC3)ncnc21 [Compound 270] | 4680 nM and 4270 nM and 3470 nM | > 10000 |  |  |  |
| O=C(NC[C@H](O)CN1CCc2ccccc2C1)c1cc(NC2COC2)ncn1 [EPZ015666] |  |  |  | sub-nanomolar potent | anti-tumour activity |

More lines, main results first:

| IC50 (PRMT5-MEP50 enzyme) | IC50 (A549 cells) [nM] | pIC50 Assay 1 (PRMT5-MEP50 enzyme) | Compound | potency as PRMT5 inhibitor (PRMT5) | anti-tumour activity (MCL xenograft models) |
| --- | --- | --- | --- | --- | --- |
| 191 nM | 457 |  | Nc1ncnc2c1ccn2[C@@H]1O[C@H](CN2CCCC23CCN(Cc2nc4ccccc4[nH]2)CC3)[C@@H](O)[C@H]1O [Compound 177] |  |  |
| 51.3 nM | 120 |  | CN1CCC2(CCCN2C[C@H]2O[C@@H](n3cc(F)c4c(N)ncnc43)[C@H](O)[C@@H]2O)CC1 [Compound 178] |  |  |
| 31.6 nM | 95.5 |  | CN1CCC2(CCCN2C[C@H]2O[C@@H](n3cc(Br)c4c(N)ncnc43)[C@H](O)[C@@H]2O)CC1 [Compound 179] |  |  |
| 10.2 nM | 269 |  | CN1CCC2(CCCN2C[C@H]2O[C@@H](n3cc(I)c4c(N)ncnc43)[C@H](O)[C@@H]2O)CC1 [Compound 180] |  |  |
| 22.4 nM | ~240 |  | Nc1ncnc2c1ccn2[C@@H]1O[C@H](CN2CC(F)(F)CC23CCN(CCc2ccc(F)cc2)CC3)[C@@H](O)[C@H]1O [Compound 183] |  |  |
| 427 nM | ~5620 |  | COCCN1CCC2(CCCN2C[C@H]2O[C@@H](n3ccc4c(N)ncnc43)[C@H](O)[C@@H]2O)CC1 [Compound 194] |  |  |
| 537 nM | > 10000 |  | CNC(=O)CCN1CCC2(CCCN2C[C@H]2O[C@@H](n3ccc4c(N)ncnc43)[C@H](O)[C@@H]2O)CC1 [Compound 195] |  |  |
| 1150 nM | 3240 |  | Nc1ncnc2c1ccn2[C@@H]1O[C@H](CN2CCCC23CCN(CC(F)F)CC3)[C@@H](O)[C@H]1O [Compound 196] |  |  |
| 6460 nM | > 10000 |  | CNC(=O)CN1CCC2(CCCN2C[C@H]2O[C@@H](n3ccc4c(N)ncnc43)[C@H](O)[C@@H]2O)CC1 [Compound 197] |  |  |
| 891 nM | 1860 |  | Nc1ncnc2c1ccn2[C@@H]1O[C@H](CN2CCCC23CCN(Cc2cccnn2)CC3)[C@@H](O)[C@H]1O [Compound 199] |  |  |
| 4790 nM | > 10000 |  | Nc1ncnc2c1ccn2[C@@H]1O[C@H](CN2CCCC23CCN(Cc2nccs2)CC3)[C@@H](O)[C@H]1O [Compound 200] |  |  |
| 209 nM | 661 |  | CN1CCC2(CCCN2C[C@H]2O[C@@H](n3ccc4c(NCc5ccc(F)cc5)ncnc43)[C@H](O)[C@@H]2O)CC1 [Compound 203] |  |  |
| 372 nM | 1380 |  | CN1CCC2(CCCN2C[C@H]2O[C@@H](n3ccc4c(NCCc5ccc(F)cc5)ncnc43)[C@H](O)[C@@H]2O)CC1 [Compound 204] |  |  |
| 1620 nM | 7080 |  | CCNc1ncnc2c1ccn2[C@@H]1O[C@H](CN2CCCC23CCN(C)CC3)[C@@H](O)[C@H]1O [Compound 205] |  |  |
| 75.9 nM | 490 |  | CN1CCC2(CCCN2C[C@H]2O[C@@H](n3ccc4c(Cl)ncnc43)[C@H](O)[C@@H]2O)CC1 [Compound 208] |  |  |
